Data: patent US20220218690A1, “MONTELUKAST SALTS AND PHARMACEUTICAL COMPOSITIONS CONTAINING THE SAME” (GENETIC S.P.A., priority 2019, published 2022)
“Also recorded” adds a separate entry of the source.

Legend:
[1] = test system: bronchial hyperreactivity
Method: (§1) Mouse model of asthma. Female BALB/c mice (8 weeks: Charles River) were sensitized through subcutaneous administration of Ovalbumin (100 μg dissolved in 400 μl of AlOH3 13.5 mg/ml) on days 0 and 8, on the twenty-first day the mice were stimulated by aerosolic administration of Ovalbumin (3% for twenty minutes). The mice were sacrificed after 48 hours and the bronchi used for the evaluation of bronchial reactivity at carbachol and salbutamol. The drugs were administered intraperitoneally prior to each exposure to the allergen. […] Pulmonary tissues were harvested and used for dosage of cytokines such as IL-4 and IL-13. In addition plasma levels of IgE were measured.

[2] = test system: IgE; settings: 0.3 mg/Kg; FIG. 18-A
Method: as §1

[3] = test system: bronchial rings; settings: Montelukast 1 μM, in vitro, FIG. 12
[4] = test system: Paw mouse edema; settings: 0.3 mg/kg intraperitoneal, 30 minutes before intraplantar carrageenin; FIG. 13

Row | SMILES | therapeutic efficacy in controlling the development of hyperreactivity to carbachol induced by sensitization ([1]; salt […] vs Formoterol 0.3 mg/kg and Montelukast 0.3 mg/kg (almost double molar dose), FIG. 16) | therapeutic efficacy in controlling the airway dysfunction induced by sensitization ([1]; salt at halved molar dose respect to single drugs) | IgE plasma levels [2] | effect of Montelukast preincubation on the bronchodilating response of Formoterol [3] | anti-inflammatory effect [4]
1 | CC(C)(O)c1ccccc1CCC(SCC1(CC(=O)O)CC1)c1cccc(C=Cc2ccc3ccc(Cl)cc3n2)c1.COc1ccc(CC(C)NCC(O)c2ccc(O)c(NC=O)c2)cc1 (centres unmarked) [Montelukast formoterol salt, N-(2-(3-formamido-4-hydroxyphenyl)-2-hydroxyethyl)-1-(4-methoxy-phenyl)propan-2-aminium-2-(1-(((1-(3-(2-(7-chloroquinolin-2-yl)vinyl)-phenyl)-3-(2-(2-hydroxypropan-2-yl)phenyl)propyl)thio-)methyl)cyclopropyl)acetate] | significantly higher than the parent drugs Formoterol and Montelukast | significantly higher than Formoterol and Montelukast; also recorded: more efficiently reverses both airway effects |  |  | 
2 | CC(C)(O)c1ccccc1CC[C@@H](SCC1(CC(=O)O)CC1)c1cccc(/C=C/c2ccc3ccc(Cl)cc3n2)c1 [Montelukast, (R,E)-2-(1-((1-(3-(2-(7-Chloroquinolin-2-yl)vinyl)phenyl)-3-(2-(2-hydroxypropan-2-yl)phenyl)propylthio)-methyl)cyclopropyl)acetic acid] |  |  | unaffected | does not alter the bronchodilating response of the Formoterol, preserves its efficacy | induces an anti-inflammatory effect
